These compounds were tested against T1, Human full-length diacylglycerol:acylCoA acyltransferase 1 (DGAT-1) (Homo sapiens, UniProt O75907) (assay: In vitro assay for inhibition of DGAT-1 activity (DGAT 1 Reduced Microsome Multidose Assay)). Settings: Trial 1 Human IC50, Trial 1: as Trial 4 except microsomes at 25 μg/mL instead of 5 μg/mL; average where n > 1.
T1 sequence (O75907 1-488): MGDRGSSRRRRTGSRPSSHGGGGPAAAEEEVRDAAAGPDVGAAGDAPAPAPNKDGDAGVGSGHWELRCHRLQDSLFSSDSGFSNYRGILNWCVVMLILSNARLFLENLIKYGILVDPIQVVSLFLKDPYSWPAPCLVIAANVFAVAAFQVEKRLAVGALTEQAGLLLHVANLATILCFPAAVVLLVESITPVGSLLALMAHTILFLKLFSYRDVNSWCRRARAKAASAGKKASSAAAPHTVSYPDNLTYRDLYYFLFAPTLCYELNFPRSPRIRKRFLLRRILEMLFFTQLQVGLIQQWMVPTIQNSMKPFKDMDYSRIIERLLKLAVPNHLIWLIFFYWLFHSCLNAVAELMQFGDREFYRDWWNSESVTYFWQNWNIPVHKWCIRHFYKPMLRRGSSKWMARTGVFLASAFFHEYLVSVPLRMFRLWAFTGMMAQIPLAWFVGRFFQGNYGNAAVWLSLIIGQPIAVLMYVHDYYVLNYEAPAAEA
Method: Human full-length diacylglycerol:acylCoA acyltransferase 1 (DGAT-1) was expressed in Sf9 insect cells which are then lysed and a crude membrane fraction (105,000×g pellet) was prepared.
Inhibitors in DMSO were pre-incubated with membranes before initiating the DGAT-1 reaction by the addition of decanoylCoA. […] The inhibitors were present at a range of eight concentrations to generate an apparent IC50 for each compound. […] Specifically, the eight concentrations used were 3 μM, 1 μM, 300 nM, 100 nM, 30 nM, 10 nM, 3 nM and 1 nM.
The reactions were allowed to proceed for 1.5 hours at room temperature and then terminated by the addition of 20 μl of EDTA (40 mM). Reaction mixture is then mixed by trituration with 30 μl of Microscint™-E (Perkin Elmer). […] Four separate trials were conducted. The method of analysis of Trial 1 was the same as Trial 4 (described above) except microsomes were utilized at 25 μg/mL instead of 5 μg/mL. The method of analysis of Trial 2 was the same as Trial 4 (described above) except eleven (11) concentrations of inhibitor were employed instead of eight (8). The method of analysis of Trial 3 was the same as Trial 2 except the compounds were serially diluted in a different laboratory.
Where this DGAT-1 inhibition assay was performed on a compound more than once, an average is provided for that compound.

Structure (SMILES) | IC50 [nM]
CC(C)(C#N)c1ccc(N2CCOc3ncnc(N)c3C2=O)cc1 [Example 1F, 2-[4-(4-amino-5-oxo-7,8-dihydropyrimido[5,4-f][1,4]oxazepin-6(5H)-yl)phenyl]-2-methylpropanenitrile] | 2120
CC(C)(C(N)=O)c1ccc(N2CCOc3ncnc(N)c3C2=O)cc1 [Example 1D, 2-[4-(4-amino-5-oxo-7,8-dihydropyrimido[5,4-f][1,4]oxazepin-6(5H)-yl)phenyl]-2-methylpropanamide] | 2750

Continued, values first:

IC50 [nM] | Structure (SMILES)
161 | CN(C)C(=O)CN(C)C(=O)C[C@H]1CC[C@H](c2ccc(N3CCOc4ncnc(N)c4C3=O)cc2)CC1 [Example 6AT]
125 | Nc1ncnc2c1C(=O)N(c1ccc([C@H]3CC[C@H](CC(=O)N4CCC(CO)C4)CC3)cc1)CCO2 (some centres unmarked) [Example 6T]
89.6 | CCN(C(=O)C[C@H]1CC[C@H](c2ccc(N3CCOc4ncnc(N)c4C3=O)cc2)CC1)[C@H](C)CO [Example 6Z]
139 | Nc1ncnc2c1C(=O)N(c1ccc([C@H]3CC[C@H](CC(=O)N4CC(F)C4)CC3)cc1)CCO2 [Example 6AM]
107 | CC1(O)CCN(C(=O)C[C@H]2CC[C@H](c3ccc(N4CCOc5ncnc(N)c5C4=O)cc3)CC2)CC1 [Example 6AP]
72.1 | CO[C@H]1CCN(C(=O)C[C@H]2CC[C@H](c3ccc(N4CCOc5ncnc(N)c5C4=O)cc3)CC2)C1 [Example 6E]
17.5 | CCC1(CO)CCN(C(=O)C[C@H]2CC[C@H](c3ccc(N4CCOc5ncnc(N)c5C4=O)cc3)CC2)C1 (some centres unmarked) [Example 6R]
53.5 | CN(C(=O)C[C@H]1CC[C@H](c2ccc(N3CCOc4ncnc(N)c4C3=O)cc2)CC1)C1CCOCC1 [Example 6H]
50.1 | N#CC1CCN(C(=O)C[C@H]2CC[C@H](c3ccc(N4CCOc5ncnc(N)c5C4=O)cc3)CC2)CC1 [Example 6G]
240 | Cc1nnc2n1CCN(C(=O)C[C@H]1CC[C@H](c3ccc(N4CCOc5ncnc(N)c5C4=O)cc3)CC1)C2 [Example 6Q]
67 | Cc1cc(CN(C)C(=O)C[C@H]2CC[C@H](c3ccc(N4CCOc5ncnc(N)c5C4=O)cc3)CC2)ccn1 [Example 6AZ]
52.8 | CN(C(=O)C[C@H]1CC[C@H](c2ccc(N3CCOc4ncnc(N)c4C3=O)cc2)CC1)[C@H]1CCCC[C@@H]1O [Example 6AG]
84.9 | COC[C@H]1CCN(C(=O)C[C@H]2CC[C@H](c3ccc(N4CCOc5ncnc(N)c5C4=O)cc3)CC2)C1 [Example 6F]
178 | CN(C)C(=O)CCN(C)C(=O)C[C@H]1CC[C@H](c2ccc(N3CCOc4ncnc(N)c4C3=O)cc2)CC1 [Example 6AC]
167 | CC(=O)N1CCN(C(=O)C[C@H]2CC[C@H](c3ccc(N4CCOc5ncnc(N)c5C4=O)cc3)CC2)CC1 [Example 6Y]
82.8 | CN(CC1COCCO1)C(=O)C[C@H]1CC[C@H](c2ccc(N3CCOc4ncnc(N)c4C3=O)cc2)CC1 (some centres unmarked) [Example 6AF]
80.4 | CC1CCCN1C(=O)C[C@H]1CC[C@H](c2ccc(N3CCOc4ncnc(N)c4C3=O)cc2)CC1 (some centres unmarked) [Example 6AI]
105 | Nc1ncnc2c1C(=O)N(c1ccc([C@H]3CC[C@H](CC(=O)N4CCC(F)(F)CC4)CC3)cc1)CCO2 [Example 6L]
100 | Nc1ncnc2c1C(=O)N(c1ccc([C@H]3CC[C@H](CC(=O)N4CCCC4CO)CC3)cc1)CCO2 (some centres unmarked) [Example 6X]
129 | CCN(C(=O)C[C@H]1CC[C@H](c2ccc(N3CCOc4ncnc(N)c4C3=O)cc2)CC1)C(C)(C)CO [Example 6U]
85.3 | CC1(O)CCN(C(=O)C[C@H]2CC[C@H](c3ccc(N4CCOc5ncnc(N)c5C4=O)cc3)CC2)C1 (some centres unmarked) [Example 6AR]
42.1 | CC(F)(F)CN(CCO)C(=O)C[C@H]1CC[C@H](c2ccc(N3CCOc4ncnc(N)c4C3=O)cc2)CC1 [Example 6AD]
73.2 | Nc1ncnc2c1C(=O)N(c1ccc([C@H]3CC[C@H](CC(=O)N4CCC4)CC3)cc1)CCO2 [Example 6AW]

Same assay, conditions: Trial 2 Human IC50, Trial 2: as Trial 4 except eleven concentrations of inhibitor instead of eight; average where n > 1

Structure (SMILES) | IC50 [nM]
CC(C)(C#N)c1ccc(N2CCOc3ncnc(N)c3C2=O)cc1 [Example 1F, 2-[4-(4-amino-5-oxo-7,8-dihydropyrimido[5,4-f][1,4]oxazepin-6(5H)-yl)phenyl]-2-methylpropanenitrile] | 1290
C[C@@H]1CN(c2ccc(C(C)(C)C)cc2)C(=O)c2c(N)ncnc2O1 [Example 1I, (8R)-4-amino-6-(4-tert-butylphenyl)-8-methyl-7,8-dihydropyrimido[5,4-f]-[1,4]oxazepin-5(6H)-one] | 18.4

Results, then the compound that gave them:

IC50 [nM] | Structure (SMILES)
88.4 | Nc1ncnc2c1C(=O)N(c1ccc(C3CCN(C(=O)C4CCCO4)CC3)cc1)CCO2 (centres unmarked) [Example 7X]
45.7 | Nc1ncnc2c1C(=O)N(c1ccc(C3CCN(C(=O)Cc4ccccc4)CC3)cc1)CCO2 [Example 7Y]
205 | CC(C)[C@H](O)C(=O)N1CCC(c2ccc(N3CCOc4ncnc(N)c4C3=O)cc2)CC1 [Example 7U]
113 | Cc1cc(C(=O)N2CCC(c3ccc(N4CCOc5ncnc(N)c5C4=O)cc3)CC2)no1 [Example 7V]
73.1 | Nc1ncnc2c1C(=O)N(c1ccc(C3CCN(C(=O)Cn4cccn4)CC3)cc1)CCO2 [Example 7AC]
130 | Cc1ncoc1C(=O)N1CCC(c2ccc(N3CCOc4ncnc(N)c4C3=O)cc2)CC1 [Example 7K]

Same assay, conditions: Trial 3 Human IC50, Trial 3: as Trial 2 except compounds serially diluted in a different laboratory; average where n > 1

Structure (SMILES) | IC50 [nM]
CC(C)(C#N)c1ccc(N2CCOc3ncnc(N)c3C2=O)cc1 [Example 1F, 2-[4-(4-amino-5-oxo-7,8-dihydropyrimido[5,4-f][1,4]oxazepin-6(5H)-yl)phenyl]-2-methylpropanenitrile] | 2660
C[C@@H]1CN(c2ccc(C(C)(C)C)cc2)C(=O)c2c(N)ncnc2O1 [Example 1I, (8R)-4-amino-6-(4-tert-butylphenyl)-8-methyl-7,8-dihydropyrimido[5,4-f]-[1,4]oxazepin-5(6H)-one] | 33.7

Second part, the compound after the results:

IC50 [nM] | Structure (SMILES)
157 | Nc1ncnc2c1C(=O)N(c1ccc(C3CCN(C(=O)C4CCCO4)CC3)cc1)CCO2 (centres unmarked) [Example 7X]
98.6 | Nc1ncnc2c1C(=O)N(c1ccc(C3CCN(C(=O)Cc4ccccc4)CC3)cc1)CCO2 [Example 7Y]
297 | CC(C)[C@H](O)C(=O)N1CCC(c2ccc(N3CCOc4ncnc(N)c4C3=O)cc2)CC1 [Example 7U]
224 | Cc1cc(C(=O)N2CCC(c3ccc(N4CCOc5ncnc(N)c5C4=O)cc3)CC2)no1 [Example 7V]
113 | Nc1ncnc2c1C(=O)N(c1ccc(C3CCN(C(=O)Cn4cccn4)CC3)cc1)CCO2 [Example 7AC]
258 | Cc1ncoc1C(=O)N1CCC(c2ccc(N3CCOc4ncnc(N)c4C3=O)cc2)CC1 [Example 7K]

Same assay, conditions: Trial 4 Human IC50, Trial 4: eight concentrations of inhibitor, microsomes 5 μg/mL; average where n > 1

IC50 [nM] | Structure (SMILES)
19.9 | C[C@@H]1CN(c2ccc(C3CC3)cc2)C(=O)c2c(N)ncnc2O1 [Example 1U]
31 | C[C@@H]1CN(c2ccc(C(C)(C)CO)cc2)C(=O)c2c(N)ncnc2O1 [Example 1AQ]
34.6 | COC(C)(C)c1ccc(N2C[C@@H](C)Oc3ncnc(N)c3C2=O)cc1 [Example 1AL, (8R)-4-amino-6-[4-(1-methoxy-1-methylethyl)phenyl]-8-methyl-7,8-dihydropyrimido[5,4-f][1,4]oxazepin-5(6H)-one]
20 | C[C@@H]1CN(c2ccc(C(C)(C)C(=O)O)cc2)C(=O)c2c(N)ncnc2O1 [Example 1AO, 2-{4-[(8R)-4-amino-8-methyl-5-oxo-7,8-dihydropyrimido[5,4-f][1,4]oxazepin-6(5H)-yl]phenyl}-2-methylpropanoic acid]
76.5 | C[C@@H]1CN(c2ccc([C@H]3C[C@@H](O)C3)cc2)C(=O)c2c(N)ncnc2O1 [Example 1Q]
39.5 | C[C@@H]1CN(c2ccc(C(O)(C(F)(F)F)C(F)(F)F)cc2)C(=O)c2c(N)ncnc2O1 [Example 1V]
17.6 | CC(C)c1ccc(N2C[C@@H](C)Oc3ncnc(N)c3C2=O)cc1 [Example 1K, (8R)-4-amino-6-(4-isopropylphenyl)-8-methyl-7,8-dihydropyrimido[5,4-f]-[1,4]oxazepin-5(6H)-one]
< 10.7 | C[C@@H]1CN(c2ccc3c(c2)CCC3)C(=O)c2c(N)ncnc2O1 [Example 1S]
16.3 | C[C@@H]1CN(c2ccc(C(C)(C)C)cc2)C(=O)c2c(N)ncnc2O1 [Example 1I, (8R)-4-amino-6-(4-tert-butylphenyl)-8-methyl-7,8-dihydropyrimido[5,4-f]-[1,4]oxazepin-5(6H)-one]
15.5 | CCC(CC)(OC)c1ccc(N2C[C@@H](C)Oc3ncnc(N)c3C2=O)cc1 [Example 1AI, (8R)-4-amino-6-[4-(1-ethyl-1-methoxypropyl)phenyl]-8-methyl-7,8-dihydropyrimido[5,4-f][1,4]oxazepin-5(6H)-one]
24 | C[C@@H]1CN(c2ccc(C(C)(C)C(N)=O)cc2)C(=O)c2c(N)ncnc2O1 [Example 1AR]
1670 | C[C@@H]1CN(c2ccc(C(=O)N(C)C)cc2)C(=O)c2c(N)ncnc2O1 [Example 6BG]
42.7 | COCC(C)(C)c1ccc(N2C[C@@H](C)Oc3ncnc(N)c3C2=O)cc1 [Example 1AA]
14.3 | C[C@@H]1CN(c2ccc(C(C)(C)C(F)(F)F)cc2)C(=O)c2c(N)ncnc2O1 [Example 1Z, (8R)-4-amino-8-methyl-6-[4-(2,2,2-trifluoro-1,1-dimethylethyl)phenyl]-7,8-dihydropyrimido[5,4-f][1,4]oxazepin-5(6H)-one]
42.3 | CCOC(C)(C)c1ccc(N2C[C@@H](C)Oc3ncnc(N)c3C2=O)cc1 [Example 1AK, (8R)-4-amino-6-[4-(1-ethoxy-1-methylethyl)phenyl]-8-methyl-7,8-dihydropyrimido[5,4-f][1,4]oxazepin-5(6H)-one]
22.6 | C[C@@H]1CN(c2ccc([C@H](O)C(C)(C)C)cc2)C(=O)c2c(N)ncnc2O1 [Example 1AD]
78.2 | C[C@@H]1CN(c2ccc(C3(C(N)=O)CCC3)cc2)C(=O)c2c(N)ncnc2O1 [Example 1AH, 1-{4-[(8R)-4-amino-8-methyl-5-oxo-7,8-dihydropyrimido[5,4-f][1,4]oxazepin-6(5H)-yl]phenyl}cyclobutanecarboxamide]
24.8 | C[C@@H]1CN(c2ccc(Cl)c(Cl)c2)C(=O)c2c(N)ncnc2O1 [Example 1AB, (8R)-4-amino-6-(3,4-dichlorophenyl)-8-methyl-7,8-dihydropyrimido[5,4-F][1,4]oxazepin-5(6H)-one]
45.2 | COC(C)(C)Cc1ccc(N2C[C@@H](C)Oc3ncnc(N)c3C2=O)cc1 [Example 1AG]
29.4 | CCC(O)(CC)c1ccc(N2C[C@@H](C)Oc3ncnc(N)c3C2=O)cc1 [Example 1AP, (8R)-4-Amino-6-[4-(1-ethyl-1-hydroxypropyl)phenyl]-8-methyl-7,8-dihydropyrimido[5,4-f][1,4]oxazepin-5(6H)-one]
35.6 | C[C@@H]1CN(c2ccc(C3(O)CCCCC3)cc2)C(=O)c2c(N)ncnc2O1 [Example 1AJ]

Reference: patent US20100204119A1, “4-AMINO-5-OXO-7,8-DIHYDROPYRIMIDO[5,4-F][1,4]OXAZEPIN-6(5H)-YL PHENYL DERIVATIVES” (Pfizer Inc, priority 2009, published 2010)
